Source: PMC7190660, “Standardised comparison of limonene-derived monoterpenes identifies structural determinants of anti-inflammatory activity” (Scientific Reports, 2020)
Several values for one entry are separate records, joined by “and”; a condition that tells them apart may be missing. Equal entries are not always repeated. Entries after “also recorded” stand apart in the source; their conditions may differ.

What was measured:
Raw 264.7 cells = experiment: Cytotoxicity by resazurin reduction assay in Raw 264.7 cells; assay type: cell-based, mouse; settings: viability not decreased by more than 30% relative to LPS alone (ISO 10993-5), LPS 1 µg/mL 18 h
Protocol: Various concentrations of the test compounds, in the absence or presence of LPS, were first evaluated for cytotoxicity using the resazurin reduction assay[26]
(§1) Raw 264.7 cells were plated at a density of 3 × 10^5 cells/mL and left to stabilize for up to 24 h.
Resazurin is a redox dye used as an indicator of cellular metabolic activity for various applications, namely cell viability, proliferation and toxicity. The assay is based on the intracellular reduction of the non-fluorescent resazurin to resorufin (a fluorescent and pink coloured compound) by mitochondrial or microsomal enzymes that use NADH or NADPH as electron sources. Since only metabolically active cells can reduce the dye, the increase in fluorescence or absorbance is directly proportional to the number of viable cells[26],[50].
(§2) To select non-cytotoxic concentrations of the test compounds, the resazurin solution was added to each well to a final concentration of 50 µM, 90 min before the end of the treatment period indicated in the figure legends. Then, absorbances at 570 nm and 620 nm (reference wavelength) were read in a Biotek Synergy HT plate reader (Biotek, Winooski, VT, USA).

NOS2 [1] = experiment: LPS-induced NOS2 mRNA (qRT-PCR) and protein (western blot) in Raw 264.7; assay type: cell-based, mouse; settings: 1 h pre-treatment, Bay 11-7082 5 μM; for LPS-induced NOS2 mRNA levels: LPS 1 µg/mL 6 h, test compounds 666 µM; for LPS-induced NOS2 protein levels: LPS 1 µg/mL 18 h
Protocol: Macrophage cultures were treated with 1 µg/mL LPS, for 6 h (a) or 18 h (b), following pre-treatment for 1 h with 666 µM of each test compound (a) or with the concentrations indicated in (b). […] Control cells (Ctrl) were treated with the vehicle (0.1% DMSO) in the absence of LPS. Each column represents the mean ± SEM of four independent experiments. The blots shown are representative of, at least, three independent experiments and are cropped for clarity and conciseness.
Total RNA extraction and qRT-PCR were performed as described before[52]. Briefly, total RNA was extracted using the NZYol (NZYTECH, Lisbon, Portugal) and quantified in a NanoDrop ND-1000 spectrophotometer at 260 nm. RNA purity was assessed by analysis of 260/230 and 260/280 absorption ratios. The cDNA was reverse-transcribed using NZY First Strand cDNA Synthesis Kit (NZYTECH), beginning with 2 µg of total RNA. qRT-PCR was performed, in duplicate for each sample, using NZYSpeedy qPCR Green Master Mix (2×) (NZYTECH) on CFX96 Real-Time PCR Detection System (Bio-Rad, Hercules, CA, USA).
Gene expression changes were analysed using the built-in CFX Manager software which enables the analysis of the results by the Pfaffl method, a variation of the ΔΔCT method corrected for gene-specific efficiencies[53]. The results were normalized using Hprt1 as housekeeping gene.
Total cell extracts were prepared and western blot was performed as described before[54]. Briefly, total (25 µg for Raw 264.7 cell line and 20 µg for human chondrocytes) proteins were separated by SDS-PAGE under reducing conditions and electrotransferred onto PVDF membranes. […] Immune complexes were detected with Enhanced ChemiFluorescence reagent (GE Healthcare) in the imaging system Thyphoon FLA 9000 (GE Healthcare). The membranes were reprobed with a mouse monoclonal anti-β-Tubulin I antibody (Sigma-Aldrich Co.), diluted at 1:20000, as a loading control, for 1 h at room temperature. Image analysis was performed with TotalLab TL120 software (Nonlinear Dynamics Ltd).

NOS2 [2] = experiment: NO production and NOS2 protein levels pre-induced by LPS (compound added after LPS removal) in Raw 264.7; assay type: cell-based, mouse; settings: LPS 1 μg/mL 8 h, LPS removed, then 666 µM compound for 18 h
Protocol: (§3) Each column represents the mean ± SEM of, at least, three independent experiments. The blots shown are representative of, at least, three independent experiments and are cropped for clarity and conciseness.
(§4) NO production was measured as the amount of nitrite accumulated in the culture supernatants using the Griess reaction which is based in the reaction of nitrite with sulfanilamide under acidic conditions, yielding a diazonium ion that couples to N-(1-napthtyl)ethylenediamine dihydrochloride to form a water-soluble red-violet azo dye that absorbs at 550 nm[51]. Briefly, equal volumes of culture supernatants and reagents [equal volumes of 1% (w/v) sulphanilamide in 5% (v/v) phosphoric acid and 0.1% (w/v) N-(1-napthtyl)ethylenediamine dihydrochloride] were mixed and incubated for 10 min, at room temperature, in the dark. The concentration of nitrite accumulated in the culture supernatants was calculated by interpolation of the absorbance of each sample, read in Biotek Synergy HT plate reader (Biotek), in a standard curve of sodium nitrite.
(§5) Total cell extracts were prepared and western blot was performed as described before. Briefly, total (25 µg for Raw 264.7 cell line and 20 µg for human chondrocytes) proteins were separated by SDS-PAGE under reducing conditions and electrotransferred onto PVDF membranes. […] Immune complexes were detected with Enhanced ChemiFluorescence reagent (GE Healthcare) in the imaging system Thyphoon FLA 9000 (GE Healthcare). The membranes were reprobed with a mouse monoclonal anti-β-Tubulin I antibody (Sigma-Aldrich Co.), diluted at 1:20000, as a loading control, for 1 h at room temperature. Image analysis was performed with TotalLab TL120 software (Nonlinear Dynamics Ltd).

IL-1β = experiment: LPS-induced IL-1β mRNA, pro-IL-1β protein and secreted IL-1β in Raw 264.7; assay type: cell-based, mouse; settings: for LPS-induced IL-1β mRNA levels: LPS 1 µg/mL 6 h, 1 h pre-treatment with 666 µM; for mature IL-1β secreted into the cell culture medium / pro-IL-1β protein levels: LPS 1 µg/mL 18 h, relative to LPS alone; for mature IL-1β secreted into the cell culture medium: 666 µM, ELISA
Protocol: Upon transcription, this mRNA is translated into a precursor protein (pro-IL-1β) that undergoes partial hydrolysis by a proteolytic complex, the inflammasome, being converted into the mature IL-1β protein which is then secreted.
Figure 3 (S)-(+)-carvone (4) and (R)-(−)-carvone (5) decrease LPS-induced IL-1β mRNA (a) and protein (b,c) levels in the Raw 264.7 cell line. Macrophage cultures were treated with 1 µg/mL LPS, for 6 h (a) or 18 h (b,c), following pre-treatment for 1 h with 666 µM of each test compound (a and c) or with the concentrations indicated in (b). Control cells (Ctrl) were treated with vehicle (0.1% DMSO) in the absence of LPS. Each column represents the mean ± SEM of, at least, three independent experiments. The blots shown are representative of, at least, three independent experiments and are cropped for clarity and conciseness. The corresponding full-length blots are presented in Fig. S3. *p < 0.05, **p < 0.01 and ****p < 0.0001 relative to LPS-treated cells. ^##p < 0.01, ^###p < 0.001 and ^####p < 0.0001 relative to the Ctrl. ^§p < 0.05 between the conditions indicated. MW: molecular weight marker.
(§6) This vehicle was used as control. Lipopolysaccharides from Escherichia coli 026:B6 (LPS; Sigma-Aldrich Co.) were dissolved in phosphate buffered saline (PBS). Recombinant human interleukin-1β (IL-1β; Peprotech, Rocky Hill, NJ, USA) was dissolved in PBS containing 0.1% Bovine Serum Albumin.
Total RNA extraction and qRT-PCR were performed as described before. Briefly, total RNA was extracted using the NZYol (NZYTECH, Lisbon, Portugal) and quantified in a NanoDrop ND-1000 spectrophotometer at 260 nm. RNA purity was assessed by analysis of 260/230 and 260/280 absorption ratios. The cDNA was reverse-transcribed using NZY First Strand cDNA Synthesis Kit (NZYTECH), beginning with 2 µg of total RNA. qRT-PCR was performed, in duplicate for each sample, using NZYSpeedy qPCR Green Master Mix (2×) (NZYTECH) on CFX96 Real-Time PCR Detection System (Bio-Rad, Hercules, CA, USA).
Gene expression changes were analysed using the built-in CFX Manager software which enables the analysis of the results by the Pfaffl method, a variation of the ΔΔCT method corrected for gene-specific efficiencies. The results were normalized using Hprt1 as housekeeping gene.
as §5
The concentration of IL-1β in the culture supernatants was measured using the Mouse IL-1β ELISA kit (ThermoScientific, Rockford, USA), following the manufacturer’s instructions.

[3] = test system: LPS-induced NO production in Raw 264.7 macrophages; experiment: Primary screening: LPS-induced NO production (nitrite, Griess reaction) in Raw 264.7 macrophages; assay type: cell-based, mouse; settings: for IC50: Mus musculus, RAW264.7, Raw 264.7 cell line; for Decrease (inhibition) of LPS-induced NO production: at the highest concentration tested; for Decrease (inhibition) of LPS-induced NO production / % inhibition of LPS-induced NO production / Effect on LPS-induced NO production / anti-inflammatory activity (in words): Raw 264.7; for % inhibition of LPS-induced NO production: at the highest non-cytotoxic concentration tested, nitrite in supernatants; for Effect on LPS-induced NO production / anti-inflammatory activity (in words): non-cytotoxic concentrations
Protocol: as §1, §6, §4

human chondrocytes [4] = experiment: Cell viability of IL-1β-treated primary human chondrocytes (resazurin); assay type: cell-based; settings: 666 or 1331 µM; IL-1β 10 ng/mL 24 h
Protocol: as §3, §6, §2

human chondrocytes [5] = experiment: IL-1β-induced NOS2 protein, NO production and pro-IL-1β protein in primary human chondrocytes; assay type: cell-based; settings: IL-1β 10 ng/mL 24 h
Protocol: The cells were treated with 10 ng/mL IL-1β for 24 h (a, b, c and d), following pre-treatment for 1 h with 666 or 1331 µM of (S)-(+)-carvone (4). As a positive control, the cells were similarly treated with 5 μM Bay 11-7082 (b and c). Control cells (Ctrl) were treated with the vehicle (0.1% DMSO) in the absence of IL-1β. Each column represents the mean ± SEM of, at least, three independent experiments. The blots shown are representative of, at least, three independent experiments and are cropped for clarity and conciseness.
Briefly, cartilage shavings underwent sequential digestion with Pronase (Roche, Indianapolis, IN, USA) and collagenase A (Roche, Indianapolis, IN, USA). To avoid chondrocyte dedifferentiation, non-proliferating monolayer cultures were setup by plating 1× 10^6 chondrocytes/mL in HAM: F12 medium containing 3% antibiotics and 5% FBS and allowed to recover for 24 h at 37 °C in a humidified atmosphere with 5% CO2. Prior to any treatments, chondrocytes were serum-starved overnight and thereafter maintained in culture medium without FBS.
This vehicle was used as control. […] Recombinant human interleukin-1β (IL-1β; Peprotech, Rocky Hill, NJ, USA) was dissolved in PBS containing 0.1% Bovine Serum Albumin.
Total cell extracts were prepared and western blot was performed as described before[54]. […] Immune complexes were detected with Enhanced ChemiFluorescence reagent (GE Healthcare) in the imaging system Thyphoon FLA 9000 (GE Healthcare). The membranes were reprobed with a mouse monoclonal anti-β-Tubulin I antibody (Sigma-Aldrich Co.), diluted at 1:20000, as a loading control, for 1 h at room temperature. Image analysis was performed with TotalLab TL120 software (Nonlinear Dynamics Ltd).

Raw 264.7 cell line = test system: Raw 264.7 cell line; parameters: method as in PMID 20625233, PMID 23541436; settings: concentrations much higher than in the current study; cited from earlier work
human chondrocytes [6] = test system: human chondrocytes; parameters: method as in PMID 25622554; settings: limonene up to 200 μg/mL, β-myrcene up to 50 μg/mL; cited from earlier work
[7] = carvone 666 or 1331 µM, Bay 11-7082 5 µM

IC50 [3]	SMILES	Highest non-cytotoxic concentration tested (Raw 264.7 cells)	LPS-induced NOS2 mRNA levels (NOS2 [1])	LPS-induced NOS2 protein levels (NOS2 [1])	Decrease of NO production (NOS2 [2])	Reduction of NOS2 protein levels (NOS2 [2])	LPS-induced IL-1β mRNA levels (IL-1β)	mature IL-1β secreted into the cell culture medium (IL-1β)	pro-IL-1β protein levels (IL-1β)	Decrease (inhibition) of LPS-induced NO production [3]	% inhibition of LPS-induced NO production [3]	Cell viability relative to cells treated with IL-1β alone (human chondrocytes [4])	pro-IL-1β protein levels (human chondrocytes [5]; 666 or 1331 µM)	IL-1β-induced NO production (human chondrocytes [5]; [7])	IL-1β-induced NOS2 protein levels (human chondrocytes [5]; [7])	Anti-inflammatory effects (Raw 264.7 cell line)	Anti-inflammatory effects (human chondrocytes [6])	Effect on LPS-induced NO production / anti-inflammatory activity (in words) [3]	Effect on LPS-induced NO production / anti-inflammatory activity (in words) ([3]; listed as 16)
123 µM and 18.5 µg/mL	C=C(C)[C@@H]1CC=C(C)C(=O)C1 [(R)-(−)-carvone (5), (R)-(−)-carvone]	666 µM and 100 µg/mL	significantly reduced	significantly reduced	approximately 30%	approximately 60%	significantly reduced	significantly decreased	significantly decreased	greater than 30%	71.50 ± 1.74 % ± SEM	–	–	–	–	–	–	–	–
110 µM and 16.5 µg/mL	C=C(C)[C@H]1CC=C(C)C(=O)C1 [(S)-(+)-carvone (4), (S)-(+)-carvone]	666 µM and 100 µg/mL	significantly reduced	significantly reduced	approximately 30%	approximately 60%	significantly reduced	significantly decreased	significantly decreased	greater than 30%	68.73 ± 1.55 % ± SEM	not to affect cell viability	significantly decreased pro-IL-1β protein levels in a concentration-dependent manner	significantly decreased	significantly decreased	–	–	–	–
–	C=C(C)[C@H]1CC=C(C)CC1 [limonene]	–	–	–	–	–	–	–	–	–	–	–	–	–	–	Significant anti-inflammatory effects	Significant anti-inflammatory effects	–	–
–	C=CC(=C)CCC=C(C)C [β-myrcene (16), β-myrcene]	183 µM and 25 µg/mL	–	–	–	–	–	–	–	–	16.48 ± 17.00 % ± SEM	–	–	–	–	Significant anti-inflammatory effects	Significant anti-inflammatory effects	showed no activity	no effect; also recorded: Neither the more rigid (17–19), nor the more flexible (16) of these four compounds showed any activity
